A word on the IC50: it is the concentration needed to halve the response being measured. A higher IC50 goes with weaker potency.

One assay addresses Cbl-b (Homo sapiens (Human), UniProt Q13191). The experiment in a line: Cbl-b LCK Ub TR-FRET assay (Cbl-b Lck HTRF). It counts as biochemical. In short, it runs like this:
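TR-FRET (340 nm excitation, 615/665 nm emission) read after adding HA-ubiquitin–UBE2D2 thioester, anti-HA-D2 and streptavidin-Eu. Beforehand, compounds incubated 60 min with biotinylated Cbl-b, then 90 min with His-LCK and ATP (1 mM in 2× mix); IC50 from 10 concentrations, DMSO high and no-LCK low controls.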
Background: TR-FRET usually uses a lanthanide donor and a delayed reading to cut background.

The target in the next assay is c-Cbl (Homo sapiens (Human), UniProt P22681). The experiment in a line: C-Cbl LCK Ub TR-FRET assay (c-cbl Lck HTRF). It counts as biochemical. As to conditions: for (fold-selectivity): C-cbl Lck HTRF IC50 relative to Cbl-b Lck HTRF IC50. The procedure, abridged:
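Signal is read once the detection mix has stood 20 min at ambient temperature. Curves are anchored by DMSO as maximum and by omission of LCK as minimum.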

Counter-ions that a name gives are not always drawn.

Sequence of Cbl-b (Q13191 40-426): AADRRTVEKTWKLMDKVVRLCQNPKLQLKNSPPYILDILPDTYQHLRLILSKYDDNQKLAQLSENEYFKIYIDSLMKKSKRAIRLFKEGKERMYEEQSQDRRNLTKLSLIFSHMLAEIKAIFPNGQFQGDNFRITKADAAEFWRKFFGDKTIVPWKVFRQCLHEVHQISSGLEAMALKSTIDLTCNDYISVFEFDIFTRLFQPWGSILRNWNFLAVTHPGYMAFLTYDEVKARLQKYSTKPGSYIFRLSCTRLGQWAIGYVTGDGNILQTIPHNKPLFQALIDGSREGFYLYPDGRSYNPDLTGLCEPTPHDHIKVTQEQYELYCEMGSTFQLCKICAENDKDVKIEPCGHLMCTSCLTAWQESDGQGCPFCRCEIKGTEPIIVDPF
Sequence of c-Cbl (P22681 47-435): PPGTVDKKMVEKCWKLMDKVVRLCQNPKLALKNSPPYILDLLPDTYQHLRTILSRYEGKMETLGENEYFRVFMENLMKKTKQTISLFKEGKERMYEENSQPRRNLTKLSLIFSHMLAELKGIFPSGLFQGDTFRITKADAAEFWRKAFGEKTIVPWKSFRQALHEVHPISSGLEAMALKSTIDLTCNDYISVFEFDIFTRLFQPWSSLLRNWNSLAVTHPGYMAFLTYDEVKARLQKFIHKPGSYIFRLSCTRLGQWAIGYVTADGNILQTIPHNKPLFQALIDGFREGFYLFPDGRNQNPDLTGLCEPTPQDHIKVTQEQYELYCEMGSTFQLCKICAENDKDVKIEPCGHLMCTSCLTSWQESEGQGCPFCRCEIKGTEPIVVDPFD

In the case of `Cn1cnnc1[C@H](F)C1(c2cccc(N3Cc4c(cc(Oc5cn[nH]c5)cc4C(F)(F)F)C3=O)c2)COC1` [Compound 116, (R)-6-((1H-pyrazol-4-yl)oxy)-2-(3-(3-(fluoro(4-methyl-4H-1,2,4-triazol-3-yl)methyl)oxetan-3-yl)phenyl)-4-(trifluoromethyl)isoindolin-1-one], the IC50 at Cbl-b worked out at 310 nM. At c-Cbl, half-maximal inhibition (IC50) required 330 nM and the “(fold-selectivity)” value amounted to 1.1x.
`CC(C)[C@H]1CN(C)CCN1Cc1cc2c(c(C(F)(F)F)c1)CN(c1cccc(C3([C@@H](F)c4nncn4-c4ccccc4)COC3)c1)C2=O` [Compound 259, 2-(3-(3-((R)-fluoro(4-phenyl-4H-1,2,4-triazol-3-yl)methyl)oxetan-3-yl)phenyl)-6-(((S)-2-isopropyl-4-methylpiperazin-1-yl)methyl)-4-(trifluoromethyl)isoindolin-1-one] displayed an IC50 on Cbl-b of 3100 nM. Also, on c-Cbl, the midpoint of inhibition, the IC50, lay at 3100 nM and the “(fold-selectivity)” value is “(1.0x)”.
In the case of `Cn1cnnc1CC1(c2cccc(N3Cc4c(cc(CNC5(C)CCCC5)cc4C(F)(F)F)C3=O)c2)CC(F)(F)C1` [Compound 344, 2-(3-(3,3-difluoro-1-((4-methyl-4H-1,2,4-triazol-3-yl)methyl)cyclobutyl)phenyl)-6-(((1-methylcyclopentyl)amino)methyl)-4-(trifluoromethyl)isoindolin-1-one formate], the IC50 against Cbl-b was determined as 16 nM; at c-Cbl, 13 nM.
Compound `CCCNCc1cc2c(c(C(F)(F)F)c1)CN(c1cc(NCC)cc(C3(Cc4nncn4C)CCC3)c1)C2=O` [Compound 458, 2-(3-(ethylamino)-5-(1-((4-methyl-4H-1,2,4-triazol-3-yl)methyl)cyclobutyl)phenyl)-6-((propylamino)methyl)-4-(trifluoromethyl)isoindolin-1-one] gave an IC50 against Cbl-b of 23 nM. Moreover, on c-Cbl, 15 nM corresponded to half-maximal inhibition (IC50) and the “(fold-selectivity)” value was “(0.66x)”.
The matching figures for `Cn1cnnc1CC1(c2cccc(N3Cc4c(cc(CNC5(C)CC(F)C5)cc4C(F)(F)F)C3=O)c2)CC(F)(F)C1` (centres unmarked) [Compound 341, 2-(3-(3,3-difluoro-1-((4-methyl-4H-1,2,4-triazol-3-yl)methyl)cyclobutyl)phenyl)-6-(((3-fluoro-1-methylcyclobutyl)amino)methyl)-4-(trifluoromethyl)isoindolin-1-one]: 14 nM, 10 nM and “(0.74x)”.
Taken in the same sequence, the figures for `CC(C)[C@H]1CN(C)CCN1Cc1cc2c(c(C(F)(F)F)c1)CN(c1cccc(C3([C@@H](F)c4nncn4C(F)F)COC3)c1)C2=O` [Compound 267, 2-(3-(3-((R)-(4-(difluoromethyl)-4H-1,2,4-triazol-3-yl)fluoromethyl)oxetan-3-yl)phenyl)-6-(((S)-2-isopropyl-4-methylpiperazin-1-yl)methyl)-4-(trifluoromethyl)isoindolin-1-one] were 17 nM, 17 nM and “(1.0x)”.
At Cbl-b, `Cn1cnnc1[C@@H](F)C1(c2cccc(N3Cc4c(cc(CN5CCC[C@H]5CO)cc4C(F)(F)F)C3=O)c2)COC1` [Compound 150, 2-(3-(3-((S)-fluoro(4-methyl-4H-1,2,4-triazol-3-yl)methyl)oxetan-3-yl)phenyl)-6-(((S)-2-(hydroxymethyl)pyrrolidin-1-yl)methyl)-4-(trifluoromethyl)isoindolin-1-one] registered a concentration for half-maximal inhibition (IC50) of 1400 nM. Besides, on c-Cbl, the concentration for half-maximal inhibition (IC50) was found to be 1500 nM and the “(fold-selectivity)” value is listed as 1.1x.
On Cbl-b, `Cn1cnc(CNc2cc(C3(Cc4nncn4C)CCC3)cc(N3Cc4c(cc(CNC5(C)CCC5)cc4C(F)(F)F)C3=O)n2)c1` [Compound 320, 2-(6-(((1-methyl-1H-imidazol-4-yl)methyl)amino)-4-(1-((4-methyl-4H-1,2,4-triazol-3-yl)methyl)cyclobutyl)pyridin-2-yl)-6-(((1-methylcyclobutyl)amino)methyl)-4-(trifluoromethyl)isoindolin-1-one] returned an IC50 of 21 nM. Moreover, at c-Cbl, half-maximal inhibition (IC50) was put at 51 nM and the “(fold-selectivity)” value is listed as “(2.4x)”.

The values are drawn from patent US20250230147A1, “LACTAMS AS CBL-B INHIBITORS” (Genentech, Inc., priority 2021, published 2025).
